# Measured values reported in patent US6908937B2, “Heterocyclic fluoroalkenyl thioethers (II)” (Bayer Cropscience AG, priority 2000, dated 2005).
# Experiments:
# [1] = test system: caterpillars of the army worm (Spodoptera frugiperda); test: Spodoptera frugiperda test; format: in vivo; settings: 1000 ppm, after 7 days, cabbage leaves dipped
# From the text: Spodoptera frugiperda Test
# [2] = test system: Trichinella spiralis larvae; test: Trichinella spiralis in-vitro; design: key: 0 means no activity; 1 means weak activity; 2 means good activity; 3 means full activity; settings: 100 ppm, 5 days at 19° C.
# Description: Trichinella spiralis In-vitro
# Trichinella spiralis larvae are isolated from skeletal muscles and subcutaneous muscles of SPF/CFW1 mice and collected in aqueous 0.9% NaCl containing 20 μg of sisomycin/ml. Per determination, 20 larvae are incubated in 2 ml of a nutrient solution (20 g of Bacto Casitone/l, 10 g of yeast extract/l, 5 g of glucose/l, 0.8 g of KH2PO4/l, 0.8 g of K2HPO4; […] of sisomycin/ml and 1 μg of Canesten/ml; pH=7.2).
# The incubation and the determination have been described in Martin et al., Pesticide Science (1996) 48, 343-349. 10 mg of the test compound are dissolved in 0.5 ml of the stated solvent, and such an amount of the resulting solution is added to the incubation medium that the desired concentration is reached. The controls contain only the solvent.
# After an incubation time of 5 days at a temperature of 19° C., the experiment is terminated. The anthelmintic activity of a substance is categorized into 4 stages. 0 means no activity, 1 means weak activity, 2 means good activity and 3 means full activity (<50%, 50-75%, >75%, 100% of the larvae dead).
# [3] = test system: larvae of the mustard beetle (Phaedon cochleariae); test: Phaedon larvae test; settings: 1000 ppm, after 7 days, cabbage leaves dipped
# [4] = test system: greenhouse red spider mite (Tetranychus urticae); test: Tetranychus test (OP-resistant/dip treatment); format: in vivo; settings: 0.1%, after 7 days, bean plants dipped
# From the text: Tetranychus Test (OP-resistant/Dip Treatment)
# [5] = test system: adults of Ctenocephalides felis; test: Test with cat fleas/oral uptake; format: in vivo; settings: 100 ppm in citrated cattle blood, after 28 h
# Description: Test with Cat Fleas/Oral Uptake
# 15 μl of this formulation are added to 3 ml of citrated cattle blood and stirred.
# 10 unfed adult fleas (Ctenocephalides felis, strain “Georgi”) are placed into a chamber (Ø 3.2 cm) whose top and bottom are closed with gauze. A metal cylinder whose underside is covered with parafilm is placed onto the chamber. […] Whereas the blood is warmed to 37° C., the temperature in the area of the flea chambers is adjusted to 25° C. Controls are mixed with the same volume of DMSO, without addition of a compound. The determinations are carried out in triplicate.
# After 28 h, the mortality in % (=dead fleas) is determined.
# [6] = test system: Boophilus microplus resistant (SP-resistant Parkhurst strain); test: Test with Boophilus microplus resistant (SP-resistant Parkhurst strain/II), injection; format: in vivo; settings: injected into the abdomen, after 7 days; for kill (no oviposition of fertile eggs): 20 μg per animal
# Description: Test with Boophilus microplus Resistant (SP-resistant Parkhurst Strain/II)
# 20 mg of active compound are dissolved in 1 ml of dimethyl sulphoxide, more dilute concentrations are prepared by dilution in the same solvent.
# The test is carried out in 5 replications. 1 μl of the solutions is injected into the abdomen, and the animals are transferred into dishes and kept in a climatized room. After 7 days, the activity is checked by examination for oviposition of fertile eggs. Eggs whose fertility is not visible from the outside are stored in glass tubes in a controlled-environment cabinet until the larvae have hatched. An activity of 100% means that no tick has produced any fertile eggs.
# Meloidogyne incognita = test: Meloidogyne test; format: in vivo; settings: 20 ppm, after 14 days, lettuce
# Description: Containers are filled with sand, solution of active compound, Meloidogyne incognita egg/larvae suspension and lettuce seeds. The lettuce seeds germinate and the plants develop. On the roots, galls are formed.
# After the desired period of time, the nematicidal action is determined in % using gall formation as a measure. 100% means that no galls were found; 0% means that the number of galls on the treated plants corresponds to that of the untreated control.
# [7] = logP determination by HPLC (EEC Directive 79/831 Annex V.A8); format: physicochemical
# [8] = test system: peach aphid (Myzus persicae); test: Myzus test; format: in vivo; settings: 10 ppm, after 6 days, Vicia faba seedlings dipped
# [9] = test system: Boophilus microplus resistant (SP-resistant Parkhurst strain); test: Test with Boophilus microplus resistant (SP-resistant Parkhurst strain/I), dip; format: in vivo; settings: 100 ppm, adult females dipped for 1 minute
# Description: Test with Boophilus microplus Resistant (SP-resistant Parkhurst Strain/I)
# (§1) 20 mg of active compound are dissolved in 1 ml of dimethyl sulphoxide, more dilute concentrations are prepared by dilution with distilled water.
# 10 adult Boophilus microplus res. are dipped for 1 minute into the preparation of active compound to be tested. The animals are transferred into plastic beakers and kept in a climatized room, and the kill rate is then determined.
# [10] = test system: Blatella germanica or Periplaneta americana; test: Cockroach test; format: in vivo; settings: 100 ppm, dipped for 1 minute, after 7 days
# Description: 20 mg of active compound are dissolved in 1 ml of dimethyl sulphoxide, more dilute concentrations are prepared by dilution with distilled H2O.
# 4 test animals are dipped for 1 minute into the preparation of active compound to be tested.
# The test animals are transferred into plastic beakers and kept in a climatized room for 7 days, after which the kill rate is determined.
# Lucilia cuprina larvae = test: Blowfly larvae test/development-inhibitory action; format: in vivo; settings: 100 ppm
# Description: Blowfly Larvae Test/Development-inhibitory Action
# as §1
# About 20 Lucilia cuprina larvae are introduced into a test tube which contains about 1 cm^3 of horse meat and 0.5 ml of the preparation of active compound to be tested. After 24 hours and 48 hours, the efficacy of the preparation of active compound is determined. The test tubes are transferred into a beaker whose bottom is covered with sand. After a further 2 days, the test tubes are removed and the pupae are counted.
# The efficacy of the preparation of active compound is assessed by the number of flies that have hatched after 1.5 times the period of development of an untreated control. 100% means that no flies have hatched; 0% means that all flies have hatched normally.
# [11] = pH2, HPLC gradient method, acetonitrile/0.1% aqueous phosphoric acid, Table 1
structure (smiles),measurement,setting,value
"FC(F)=C(F)CCCCSc1nnc(-c2ccc(C(F)(F)F)cc2)o1 [Example 1, 2-(6,6,5-trifluorohex-5-enylthio)-5-(4-trifluoromethyl-phenyl)-1,3,4-oxadiazole]",kill,[1],100%
same,melting point,,40 °C
FC(F)=CCCCCSc1nnc(-c2ccc(C(F)(F)F)cc2)o1 [Example 2],anthelmintic activity class (larvae dead),[2],no activity
same,kill,[3],100%
same,kill,[4],98%
same,kill (mortality),[5],93%
same,kill (no oviposition of fertile eggs),[6],100%
same,nematicidal action (gall formation),Meloidogyne incognita,100%
same,logP (pH2),[7]; [11],4.77
same,kill,[8],95%
CSc1nnc(SCCCCC(F)=C(F)F)s1 [Example 5],kill (no oviposition of fertile eggs),[6],100%
same,nematicidal action (gall formation),Meloidogyne incognita,100%
same,logP (pH2),[7]; pH 2,3.69
CSc1nnc(SCCCCC=C(F)F)s1 [Example 6],kill,[9],100%
same,kill,[10],75%
same,kill,[3],100%
same,kill,[4],98%
same,kill (mortality),[5],81%
same,activity (no oviposition of fertile eggs),[6]; 0.8 μg per animal,100%
same,activity (no oviposition of fertile eggs),[6]; 4 μg per animal,100%
same,kill (no oviposition of fertile eggs),[6],100%
same,logP (pH2),[7]; pH 2,3.79
same,kill,[8],95%
C[S+]([O-])c1nnc(SCCCCC(F)=C(F)F)s1 (stereo not drawn) [Example 9],logP (pH2),[7]; pH 2,2.46
FC(F)=CCCCCSc1nnc(C(F)(F)F)s1 [Example 10],kill,[9],100%
same,kill,[1],100%
same,kill,[10],100%
same,anthelmintic activity class (larvae dead),[2],no activity
same,kill (mortality),[5],87%
same,activity (no oviposition of fertile eggs),[6]; 0.8 μg per animal,100%
same,activity (no oviposition of fertile eggs),[6]; 4 μg per animal,100%
same,kill (no oviposition of fertile eggs),[6],100%
same,logP (pH2),[7]; [11],4.32
same,kill,[8],100%
FC(F)=C(F)CCCCSc1nnc(C(F)(F)F)s1 [Example 11],kill,[3],100%
same,logP (pH2),[7]; [11],4.21
CC(C)CCSc1nnc(SCCCCC=C(F)F)s1 [Example 12],kill,[9],100%
same,anthelmintic activity class (larvae dead),[2],no activity
same,kill,[3],100%
same,kill (no flies hatched),Lucilia cuprina larvae,100%
same,kill,[4],98%
same,kill (mortality),[5],94%
same,activity (no oviposition of fertile eggs),[6]; 0.8 μg per animal,100%
same,activity (no oviposition of fertile eggs),[6]; 4 μg per animal,100%
same,kill (no oviposition of fertile eggs),[6],100%
same,nematicidal action (gall formation),Meloidogyne incognita,100%
same,logP (pH2),[7]; pH 2,5.68
CC(C)CCSc1nnc(SCCCCC(F)=C(F)F)s1 [Example 13],nematicidal action (gall formation),Meloidogyne incognita,100%
same,logP (pH2),[7]; [11],5.53
FC(F)=C(F)CCCCSc1nnc(-c2cc(Cl)nc(Cl)c2)o1 [Example 16],logP (pH2),[7]; pH 2,4.55
FC(F)=C(F)CCCCSc1nnc(SCCCCC(F)=C(F)F)s1 [Example 21],anthelmintic activity class (larvae dead),[2],no activity
same,activity (no oviposition of fertile eggs),[6]; 0.8 μg per animal,100%
same,activity (no oviposition of fertile eggs),[6]; 4 μg per animal,100%
same,kill (no oviposition of fertile eggs),[6],100%
same,logP (pH2),[7]; pH 2,5.27
CCOc1nnc(SCCCCC(F)=C(F)F)s1 [Example 24],logP (pH2),[7]; pH 2,3.80
CC(C)Oc1nnc(SCCCCC(F)=C(F)F)s1 [Example 25],logP (pH2),[7]; pH 2,4.24
FC(F)=C(F)CCCCSc1nnc(SCCC(F)=C(F)F)s1 [Example 27],logP (pH2),[7]; pH 2,4.71
FC(F)=CCCCCSc1nnc(SCCC(F)=C(F)F)s1 [Example 28],logP (pH2),[7]; pH 2,4.84
FC(F)=C(F)CCCCSc1nnc(SC(F)F)s1 [Example 29],logP (pH2),[7]; pH 2,3.82
FC(F)=CCCCCSc1nnc(SC(F)F)s1 [Example 30],logP (pH2),[7]; pH 2,3.91
FC(F)=CCCCCSC1=NCCCS1 [IB-1],logP (pH2),[7]; pH 2,1.48
FC(F)=C(F)CCCCSC1=NCCCS1 [IB-2],logP (pH2),[7]; pH 2,1.51
